Experimental data from EP0348513A1, “STYRENE DERIVATIVE, POLYSTYRENE DERIVATIVE COMPRISING THE SAME, PROCESS FOR PREPARING SAID POLYSTYRENE DERIVATIVE, AND ULTRAVIOLET ABSORBER COMPRISING SAID STYRENE DERIVATIVE OR POLYSTYRENE DERIVATIVE” (Earth Chemical Co., Ltd., priority 1987, dated 1989).
“And” between values parts separate entries of the source, which are not always exact repeats. Identical values can stand only once.

How the values were obtained:
[1] = Ultraviolet absorption spectrum (spectrophotometer, quartz cell, optical path 10 mm); format: physicochemical
Experimental: The measurement was carried out by using a spectrophotometer (UV-200S, made by SHIMADZU CORPORATION) as an ethanol solution of the sample having a suitable concentration with a quartz cell having an optical path of 10 mm. Also, the wavelength at the maximum absorption and the molar extinction coefficient were found from the results of the measurement as the ultraviolet absorptive properties. The results are shown below. • Wavelength at the maximum absorption: 332 nm Molar extinction coefficient: 44,000
The measurement was carried out by using a spectrophotometer (UV-200S, made by SHIMADZU CORPORATION), as a dimethylformamide solution of the sample having a suitable concentration and with a quartz cell having an optical path of 10 mm.
The measurement was carried out by using a spectrophotometer (UV-200S, made by SHIMADZU CORPORATION), as a dimethylformamide solution of the sample having a suitable concentration, with a quartz cell having an optical path of 10 mm.

[2] = Transmittance of ultraviolet rays through a coated polyethylene sheet; format: physicochemical; conditions: wavelength of 330 nm
Experimental: There was dissolved 2.8 g of p-vinylbenzaldehyde 4-carboxymethyl-2-methylthiosemicarbazone in 1.5 g of triethanolamine and 23.7 g of water. The solution was applied onto a polyethylene sheet having a thickness of 0.5 mm (which was prepared in the same manner as the preparation process for the'control pieces in Example 11) in an amount of 2.0 mg/cm^2, and dried at room temperature to give a ultraviolet absorbent sheet.
The obtained ultraviolet absorbent sheet and untreated polyethylene sheet were cut into pieces having a size of 1 cm X 4 cm, respectively. The untreated polyethylene sheet was used as control piece, and transmittance of ultraviolet rays at a wavelength of 330 nm was measured by using a spectrophotometer. As the result, the transmittance of ultraviolet rays of the ultraviolet absorbent sheet was not more than 0.1 %. Accordingly, it was confirmed that not less than 99.9 % of ultraviolet rays were absorbed under the above condition.

guinea pigs = test: Sunscreen effect against ultraviolet irradiation of the skin; format: in vivo; conditions: sunscreen ointment or lotion containing the derivative, about 2 mg per 1 cm^2, ultraviolet rays 10 minutes, judged after 24 hours with the naked eyes; control area turned red
Experimental: (§1) Hair of. the notal of three guinea pigs was cut, and the drug (ointment) was applied in an amount of about 2 mg per 1 cm^2. Then, ultraviolet rays were irradiated for 10 minutes by a fluorescent light (FL-20SE, made by TOSHIBA CORPORATION) from a height of 10 cm from the notal.. On the other hand, as a control area, a base prepared without mixing the sunscreening agent was applied, and treatments were carried out in the same manner as.above. The judgement was conducted after 24 hours with the naked eyes.
as §1, with “of” for “of.”, “cm^2..” for “cm^2.”, “notal.” for “notal..”, “as above.” for “as.above.”

skin of a quinea pig = test: Percutaneous absorption, Franz diffusion cell; format: in vitro ADME; conditions: 1 % aqueous solution, 33°C, 20 hours
Experimental: The skin of a quinea pig was peeled, washed with physiological saline and then set in a percutaneous absorption apparatus which was made in accordance with the description in Franz, T. J, J. Invest, Dermatol, 64, 190, 1975, by using a diffusion cell. The sample room was filled with 0.5 mi of a 1 % aqueous solution of the polystyrene derivative, and the acceptor was filled with physiological saline. After maintaining at 33°C for 20 hours while stirring with a magnetic stirrer, the physiological saline in the acceptor was taken out, and the ultraviolet absorbency was measured. In the same manner as above, ultraviolet absorbency was measured, using water alone as a negative control substance and a 1 % aqueous solution of p-aminobenzoic acid as a positive control substance. […] To the contrary, the spectrum of the positive control substance was shown the corresponding to an amount of 87.0 ppm of the compound.
The skin of a quinea pig was peeled, washed with physiological saline and then set in a percutaneous absorption apparatus which was made in accordance with the description in Franz, T. J, J. Invest, Dermatol, 64, 190, 1975, by using a diffusion cell. […] After maintaining at 33°C for 20 hours while stirring with a magnetic stirrer, the physiological saline in the acceptor was taken out, and the ultraviolet absorbency was measured. […]

[3] = commercially available sunscreening agent, at the first (shorter) maximum
[4] = commercially available sunscreening agent, at the second (longer) maximum
[5] = commercially available sunscreening agent, first (shorter) maximum
[6] = commercially available sunscreening agent, second (longer) maximum
[7] = ethanol solution, at the maximum absorption
[8] = N,N-dimethylformamide solution, at the maximum absorption
[9] = commercially available sunscreening agent, solvent not stated

Cc1ccc(O)c(-n2nc3ccccc3n2)c1 [2-(2'-hydroxy-5'-methylphenylbenzotriazole), reference compound]
molar extinction coefficients [1, 3]: 12,000 | molar extinction coefficients [1, 4]: 13,000 | wavelengths at the maximum absorption [1, 5]: 297 nm | wavelengths at the maximum absorption [1, 6]: 337 nm

COc1ccc(C(=O)c2ccccc2)c(O)c1 [2-hydroxy-4-methoxybenzophenone, reference compound]
molar extinction coefficients [1, 3]: 13,000 | molar extinction coefficients [1, 4]: 8,200 | wavelengths at the maximum absorption [1, 5]: 287 nm | wavelengths at the maximum absorption [1, 6]: 326 nm

C=Cc1ccc(C=NN(C)C(=S)NCC(=O)OC)cc1 [Example 1, p-vinylbenzaldehyde 4-methoxycarbonylmethyl-2-methylthiosemicarbazone]
Wavelength at the maximum absorption ([1]; ethanol solution): 332 nm | Molar extinction coefficient [1, 7]: 44,000

C=Cc1ccc(C=NN(C)C(=S)NCC(=O)O)cc1 [Example 2, p-vinylbenzaldehyde 4-carboxymethyl-2-methylthiosemicarbazone]
ultraviolet rays absorbed ([2]; same coated sheet): not less than 99.9% | transmittance of ultraviolet rays ([2]; triethanolamine/water solution applied at 2.0 mg/cm^2 on 0.5 mm polyethylene sheet): not more than 0.1% | Wavelength at the maximum absorption ([1]; ethanol solution): 332 nm | Molar extinction coefficient [1, 7]: 44,000

C=Cc1ccc(C=NN(C)C(=O)NCC(=O)OCC)cc1 [Example 3, p-vinylbenzaldehyde 4-ethoxy carbonylmethyl-2-methylsemicarbazone]
sunscreen effect (color of the applied area compared with an area not irradiated) (guinea pigs): the color in the area on which the sunscreen lotion was applied was not changed | Wavelength at the maximum absorption ([1]; ethanol solution): 311 nm | Molar extinction coefficient [1, 7]: 33,000

C=Cc1ccc(C=NN(CC(=O)O)C(=S)NC)cc1 [Example 4, vinylbenzaldehyde 2-carboxymethyl-4-methylthiosemicarbazone]
Wavelength at the maximum absorption ([1]; ethanol solution): 315 nm | Molar extinction coefficient [1, 7]: 34,000

C=Cc1ccc(C=NN(CCCC(=O)O)C(=S)NC)cc1 [Example 5, p-vinylbenzaldehyde 2-(y-carboxypropyl)-4-methylthiosemicarbazone]
Wavelength at the maximum absorption ([1]; ethanol solution): 332 nm | Molar extinction coefficient [1, 7]: 38,000

C=Cc1ccc(C=NN(CC(=O)OCC)C(=S)N(C)C)cc1 [Example 6, p-vinylbenzaldehyde 2-ethoxycarbonylmethyl-4,4-dimethylthiosemicarbazone]
Wavelength at the maximum absorption ([1]; ethanol solution): 381 nm | Molar extinction coefficient [1, 7]: 34,000

C=Cc1ccc(C=NN(C)C(=S)NC)cc1 [Example 7, vinylbenzaldehyde 2,4-dimethylthiosemicarbazone]
Wavelength at the maximum absorption ([1]; ethanol solution): 315 nm | Molar extinction coefficient [1, 7]: 34,000

C=Cc1ccc(C=NN(C)C(=S)N(C)C)cc1 [Example 8, p-vinylbenzaldehyde 2,4,4-trimethylthiosemicarbazone]
Wavelength at the maximum absorption ([1]; ethanol solution): 331 nm | Molar extinction coefficient [1, 7]: 29,000

C=Cc1ccc(C=NN(CCO)C(=S)NC)cc1 [Example 9, p-vinylbenzaldehyde 2-(β-hydroxyethyl)-4-methylthiosemicarbazone]
Wavelength at the maximum absorption ([1]; ethanol solution): 322 nm | Molar extinction coefficient [1, 7]: 40,000

C=Cc1ccc(C=NN(C(=S)NC)c2ccccc2)cc1 [Example 11, p-vinylbenzaldehyde 4-methyl-2-phenylthiosemicarbazone]
Wavelength at the maximum absorption ([1]; N,N-dimethylformamide solution): 335 nm | Molar extinction coefficient [1, 8]: 38,000

C=Cc1ccc(C=NN(C)C(=S)Nc2ccccc2)cc1 [Example 12, p-vinylbenzaldehyde 2-methyl-4-phenylthiosemicarbazone]
Wavelength at the maximum absorption ([1]; N,N-dimethylformamide solution): 338 nm | Molar extinction coefficient [1, 8]: 40,000

CC1CC(OC(=O)c2ccccc2O)CC(C)(C)C1 (stereo not drawn) [homomenthyl salicylate, reference compound]
Molar extinction coefficient [1, 9]: 4,400 | Wavelength at the maximum absorption [1, 9]: 308 nm

Nc1ccc(C(=O)O)cc1 [p-aminobenzoic acid]
amount of the compound in the acceptor corresponding to the spectrum (skin of a quinea pig): 87.0 ppm and 93.0 ppm
